Data reported in US8883782B2, “Spiro-tetracyclic ring compounds as beta-secretase modulators and methods of use” (Amgen Inc., priority 2010, dated 2014).
pIC50: −log10 of the molar value. Like-named read-outs stand apart in the source and are kept apart here.

Key:
[1] = tested on: Aβ40 in conditioned medium of cells stably expressing Amyloid Precursor Protein (APP); assay: In vitro BACE cell-based assay (Aβ40 in conditioned medium, sandwich ELISA); details: for pIC50: read-out: HEK cell assay
Summary of the method: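 The sandwich ELISA pairs pAb40 capture (3 h, 4 °C) with 6E10 detection (2 h, 4 °C) and a streptavidin-europium TRF read-out. Supernatants come from APP-expressing cells grown in 10% FBS DMEM.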

[2] = target: Beta Secretase enzyme (BACE) (Homo sapiens, UniProt P56817); assay: In vitro enzymatic BACE FRET (fluorescence resonance energy transfer) assay; type: biochemical; details: for pIC50: average IC50, enzyme assay, read-out: BACE 1 FRET assay
Beta Secretase enzyme (BACE), sequence (P56817 46-501, species assumed): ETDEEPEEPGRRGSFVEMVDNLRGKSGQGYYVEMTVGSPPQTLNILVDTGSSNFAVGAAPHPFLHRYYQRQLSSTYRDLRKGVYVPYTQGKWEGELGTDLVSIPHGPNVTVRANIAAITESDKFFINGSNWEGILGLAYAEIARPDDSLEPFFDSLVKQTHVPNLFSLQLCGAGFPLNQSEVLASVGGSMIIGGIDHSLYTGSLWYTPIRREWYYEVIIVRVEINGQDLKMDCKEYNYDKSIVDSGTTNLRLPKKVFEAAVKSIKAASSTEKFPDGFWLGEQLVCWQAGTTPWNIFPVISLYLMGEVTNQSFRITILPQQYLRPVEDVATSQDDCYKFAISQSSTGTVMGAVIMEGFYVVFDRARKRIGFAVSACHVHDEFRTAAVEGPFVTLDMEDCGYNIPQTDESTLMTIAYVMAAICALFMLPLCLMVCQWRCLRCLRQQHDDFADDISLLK
Summary of the method: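 Run in 0.05 M acetate pH 4.2 with 10% DMSO final and 100 uM genapol; started by adding 50 nM FRET peptide substrate (fluorophore and quencher flanking the cleavage site), incubated one hour, then stopped with Tris to neutral pH before reading fluorescence.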

[3] = Homo sapiens, HEK293, average IC50, HEK cells

For NC1=N[C@@]2(CO1)c1cc(-c3cccnc3F)ccc1Oc1ncc(N3CCC(F)(F)CC3)cc12 [Example 478, (5S)-3-(4,4-difluoro-1-piperidinyl)-7-(2-fluoro-3-pyridinyl)spiro[chromeno[2,3-b]pyridine-5,4′-[1,3]oxazol]-2′-amine], the pIC50 [1, 3] was 7.84 and the pIC50 [2] was 8.68.
Work on NC1=N[C@@]2(CO1)c1cc(-c3cccnc3F)ccc1Oc1ncc(N3CCC(F)(F)C3)cc12 [Example 479, (5S)-3-(3,3-difluoro-1-pyrrolidinyl)-7-(2-fluoro-3-pyridinyl)spiro[chromeno[2,3-b]pyridine-5,4′-[1,3]oxazol]-2′-amine] yielded a pIC50 [1, 3] of 8.36 and a pIC50 [2] of 8.96.
In the case of CC1(C)CCN(c2cnc3c(c2)[C@]2(COC(N)=N2)c2cc(-c4cccnc4F)ccc2O3)CC1 [Example 480, (5S)-3-(4,4-dimethyl-1-piperidinyl)-7-(2-fluoro-3-pyridinyl)spiro[chromeno[2,3-b]pyridine-5,4′-[1,3]oxazol]-2′-amine], the pIC50 [1, 3] was 8.03 and the pIC50 [2] was 8.60.
For COc1ccc(F)c(-c2ccc3c(c2)[C@@]2(COC(N)=N2)c2cc(N4CCOC(C)(C)C4)cnc2O3)c1 [Example 481, (5S)-3-(2,2-dimethyl-4-morpholinyl)-7-(2-fluoro-5-methoxyphenyl)spiro[chromeno[2,3-b]pyridine-5,4′-[1,3]oxazol]-2′-amine], the pIC50 [1, 3] was 7.72 and the pIC50 [2] was 8.57.
Cc1ccnc(F)c1-c1ccc2c(c1)[C@@]1(COC(N)=N1)c1cc(N3CCOC(C)(C)C3)cnc1O2 [Example 482, (5S)-3-(2,2-dimethyl-4-morpholinyl)-7-(2-fluoro-4-methyl-3-pyridinyl)spiro[chromeno[2,3-b]pyridine-5,4′-[1,3]oxazol]-2′-amine] showed a pIC50 [1, 3] of 7.84 and a pIC50 [2] of 8.47.
Molecule CC1(C)CCCN(c2cnc3c(c2)[C@]2(COC(N)=N2)c2cc(-c4cccnc4F)ccc2O3)C1 [Example 483, (5S)-3-(3,3-dimethyl-1-piperidinyl)-7-(2-fluoro-3-pyridinyl)spiro[chromeno[2,3-b]pyridine-5,4′-[1,3]oxazol]-2′-amine] has a pIC50 [1, 3] of 7.65 and a pIC50 [2] of 8.47.
With NC1=N[C@]2(CO1)c1cc(Br)ccc1Oc1nc(F)ccc12 [Example 484, (5R)-7-bromo-2-fluorospiro[chromeno[2,3-b]pyridine-5,4′-[1,3]oxazol]-2′-amine] the pIC50 [1, 3] was 5.00 and the pIC50 [2] was 4.61.
NC1=N[C@]2(CO1)c1cc(-c3cccnc3F)ccc1Oc1nc(F)ccc12 [Example 485, (5R)-2-fluoro-7-(2-fluoro-3-pyridinyl)spiro[chromeno[2,3-b]pyridine-5,4′-[1,3]oxazol]-2′-amine] gave a pIC50 [1, 3] of 6.07 and a pIC50 [2] of 6.76.
NC1=N[C@]2(CO1)c1cc(-c3cccnc3)ccc1Oc1c2cc(-c2cccnc2)nc1F [Example 486, (5R)-1-fluoro-3,7-di-3-pyridinylspiro[chromeno[2,3-c]pyridine-5,4′-[1,3]oxazol]-2′-amine] gave a pIC50 [1, 3] of 6.49 and a pIC50 [2] of 6.52.
In the case of NC1=N[C@@]2(CO1)c1cc(Br)ccc1Oc1c2cc(Cl)nc1F [Example 487, (5S)-7-bromo-3-chloro-1-fluorospiro[chromeno[2,3-c]pyridine-5,4′-[1,3]oxazol]-2′-amine], the pIC50 [1, 3] was 6.13 and the pIC50 [2] was 5.43.
Molecule NC1=N[C@@]2(CO1)c1cc(-c3cccnc3F)ccc1Oc1c2cc(Cl)nc1F [Example 488, (5S)-3-chloro-1-fluoro-7-(2-fluoro-3-pyridinyl)spiro[chromeno[2,3-c]pyridine-5,4′-[1,3]oxazol]-2′-amine] has a pIC50 [1, 3] of 6.45 and a pIC50 [2] of 8.18.
NC1=N[C@]2(CO1)c1cc(Br)ccc1Oc1c(F)cc(Cl)nc12 [Example 489, (10R)-8-bromo-2-chloro-4-fluorospiro[chromeno[3,2-b]pyridine-10,4′-[1,3]oxazol]-2′-amine] was tested, and the pIC50 [1, 3] was 5.00 and the pIC50 [2] was 5.09.
COc1nc(-c2cccnc2)cc2c1Oc1ccc(-c3cccnc3)cc1[C@@]21COC(N)=N1 [Example 490, (5S)-1-methoxy-3,7-di-3-pyridinylspiro[chromeno[2,3-c]pyridine-5,4′-[1,3]oxazol]-2′-amine] showed a pIC50 [1, 3] of 7.65 and a pIC50 [2] of 8.15.
For NC1=N[C@@]2(CO1)c1cc(-c3cccnc3)ccc1Oc1c2cc(-c2cccnc2)nc1F [Example 494, (5S)-1-fluoro-3,7-di-3-pyridinylspiro[chromeno[2,3-c]pyridine-5,4′-[1,3]oxazol]-2′-amine], the pIC50 [1, 3] was 8.28 and the pIC50 [2] was 9.30.
For CC(C)(C)/C=C/c1ccc2c(c1)[C@]1(COC(N)=N1)c1cc(-c3cncnc3)c(F)cc1O2 [Example 496, (4R)-7′-((1E)-3,3-dimethyl-1-buten-1-yl)-3′-fluoro-2′-(5-pyrimidinyl)spiro[1,3-oxazole-4,9′-xanthen]-2-amine], the IC50 ([1]; Homo sapiens, HEK293, read-out: HEK cell assay (uM), average IC50, HEK cells) was 0.0311 µM and the IC50 ([2]; BACE 1 FRET assay (uM)) was 0.0014 µM.
Work on CC(C)(C)C#Cc1ccc2c(c1)[C@]1(COC(N)=N1)c1cc(-c3cncnc3)c(F)cc1O2 [Example 497, (4R)-7′-(3,3-dimethyl-1-butyn-1-yl)-3′-fluoro-2′-(5-pyrimidinyl)spiro[1,3-oxazole-4,9′-xanthen]-2-amine] yielded a pIC50 [1, 3] of 7.43 and a pIC50 [2] of 8.60.
With CC1(C#Cc2ccc3c(c2)[C@]2(COC(N)=N2)c2cc(-c4cncnc4)c(F)cc2O3)COC1 [Example 498, (4R)-3′-fluoro-7′-((3-methyl-3-oxetanyl)ethynyl)-2′-(5-pyrimidinyl)spiro[1,3-oxazole-4,9′-xanthen]-2-amine] the pIC50 [1, 3] was 7.72 and the pIC50 [2] was 8.42.
For COc1ccc(Cl)c(-c2ccc3c(c2)[C@@]2(COC(N)=N2)c2cc(C4=CCOCC4)cnc2O3)c1 [Example 499, (5S)-7-(2-chloro-5-methoxyphenyl)-3-(3,6-dihydro-2H-pyran-4-yl)spiro[chromeno[2,3-b]pyridine-5,4′-[1,3]oxazol]-2′-amine], the pIC50 [1, 3] was 7.64 and the pIC50 [2] was 8.66.
Molecule CNC(=O)c1ccc(F)c(-c2ccc3c(c2)[C@@]2(COC(N)=N2)c2cc(C4=CCOCC4)cnc2O3)c1 [Example 500, 3-((5S)-2′-amino-3-(3,6-dihydro-2H-pyran-4-yl)spiro[chromeno[2,3-b]pyridine-5,4′-[1,3]oxazol]-7-yl)-4-fluoro-N-methylbenzamide] has a pIC50 [1, 3] of 7.43 and a pIC50 [2] of 7.93.
With NC1=N[C@@]2(CO1)c1cc(-c3cc(Cl)ccc3Cl)ccc1Oc1ncc(C3=CCOCC3)cc12 [Example 501, (5S)-7-(2,5-dichlorophenyl)-3-(3,6-dihydro-2H-pyran-4-yl)spiro[chromeno[2,3-b]pyridine-5,4′-[1,3]oxazol]-2′-amine] the pIC50 [1, 3] was 7.57 and the pIC50 [2] was 8.66.
COc1ccc(OC)c(-c2ccc3c(c2)[C@@]2(COC(N)=N2)c2cc(C4=CCOCC4)cnc2O3)c1 [Example 502, (5S)-3-(3,6-dihydro-2H-pyran-4-yl)-7-(2,5-dimethoxyphenyl)spiro[chromeno[2,3-b]pyridine-5,4′-[1,3]oxazol]-2′-amine] gave a pIC50 [1, 3] of 7.90 and a pIC50 [2] of 8.60.
CC(C)(C)COc1ccc2c(c1)[C@@]1(COC(N)=N1)c1cc(C3=CCOCC3)cnc1O2 [Example 503, (5S)-3-(3,6-dihydro-2H-pyran-4-yl)-7-(2,2-dimethylpropoxy)spiro[chromeno[2,3-b]pyridine-5,4′-[1,3]oxazol]-2′-amine] gave a pIC50 [1, 3] of 7.71 and a pIC50 [2] of 8.33.
CC(C)(C)COc1ccc2c(c1)[C@@]1(COC(N)=N1)c1cc(C3=CCOC(C)(C)C3)cnc1O2 [Example 504, (5S)-3-(2,2-dimethyl-3,6-dihydro-2H-pyran-4-yl)-7-(2,2-dimethylpropoxy)spiro[chromeno[2,3-b]pyridine-5,4′-[1,3]oxazol]-2′-amine] was tested, and the pIC50 [1, 3] was 7.53 and the pIC50 [2] was 8.12.
In the case of CC1(C)CC(c2ccc3c(c2)[C@]2(COC(N)=N2)c2cc(-c4cncnc4)c(F)cc2O3)=CCO1 [Example 505, (4R)-7′-(2,2-dimethyl-3,6-dihydro-2H-pyran-4-yl)-3′-fluoro-2′-(5-pyrimidinyl)spiro[1,3-oxazole-4,9′-xanthen]-2-amine], the pIC50 [1, 3] was 7.90 and the pIC50 [2] was 8.59.
For CC(C)(C)COc1ccc2c(c1)[C@@]1(COC(N)=N1)c1cc(C3=CC(C)(C)OCC3)cnc1O2 [Example 506, (5S)-3-(6,6-dimethyl-3,6-dihydro-2H-pyran-4-yl)-7-(2,2-dimethylpropoxy)spiro[chromeno[2,3-b]pyridine-5,4′-[1,3]oxazol]-2′-amine], the pIC50 [1, 3] was 7.44 and the pIC50 [2] was 8.24.
In the case of CC(C)(C)COc1ccc2c(c1)[C@@]1(COC(N)=N1)c1cc(C3=CCOC(C)(C)C3)cnc1O2 [Example 507, (5S)-3-(2,2-dimethyl-3,6-dihydro-2H-pyran-4-yl)-7-(2,2-dimethylpropoxy)spiro[chromeno[2,3-b]pyridine-5,4′-[1,3]oxazol]-2′-amine], the pIC50 ([1]; average IC50, HEK cells) was 7.51 and the pIC50 [2] was 8.25.
For CC(C)(C)COc1ccc2c(c1)[C@@]1(COC(N)=N1)c1cc(-c3cncnc3)c(F)cc1O2 [Example 511, (4R)-7′-(2,2-dimethylpropoxy)-3′-fluoro-2′-(5-pyrimidinyl)spiro[1,3-oxazole-4,9′-xanthen]-2-amine], the pIC50 [1, 3] was 6.31 and the pIC50 [2] was 7.00.
CC(C)(C)COc1ccc2c(c1)[C@]1(COC(N)=N1)c1cc(-c3cncnc3)c(F)cc1O2 [Example 512, (4S)-7′-(2,2-dimethylpropoxy)-3′-fluoro-2′-(5-pyrimidinyl)spiro[1,3-oxazole-4,9′-xanthen]-2-amine] gave a pIC50 [1, 3] of 6.42 and a pIC50 [2] of 6.99.
Work on NC1=N[C@]2(CO1)c1cc(C3=CCCOC3)ccc1Oc1cc(F)c(-c3cncnc3)cc12 [Example 514, (4R)-7′-(5,6-dihydro-2H-pyran-3-yl)-3′-fluoro-2′-(5-pyrimidinyl)spiro[1,3-oxazole-4,9′-xanthen]-2-amine] yielded a pIC50 [1, 3] of 7.94 and a pIC50 [2] of 8.59.
